According to US10835542B2, “9-aminomethyl minocycline compounds and use thereof in treating community-acquired bacterial pneumonia (CABP)” (Paratek Pharmaceuticals, Inc., priority 2016, dated 2020):
Where “and” joins values, the source holds several entries; their conditions need not be identical. Equal values may be shown once. Read-outs that look alike come from different tables or passages of the source.

Experiments:
[1] = Absolute bioavailability of the tablet formulation (tosylate salt); conditions: phase 3 tablet formulation (tosylate salt), fasting conditions; listed as omadacycline
[2] = tested on: baseline pathogen; format: in vivo, human; conditions: PTE, microITT
[3] = tested on: Haemophilus influenzae; assay: Mouse model of lower respiratory tract infection; format: in vivo; conditions: infection caused by Haemophilus influenzae
[4] = Phase 1 multiple oral dose study: safety and tolerability; conditions: for Most frequent TEAEs: ALT increased, n (%) / Most frequent TEAEs: Diarrhea, n (%) / Most frequent TEAEs: Dizziness, n (%) / Most frequent TEAEs: Nausea, n (%) / Most frequent TEAEs: Vomiting, n (%) / TEAEs leading to early discontinuation of study drug: ALT increased, n (%) / TEAEs leading to early discontinuation of study drug: All, n (%) / TEAEs leading to early discontinuation of study drug: Lipase increased, n (%) / TEAEs leading to early discontinuation of study drug: Nausea, n (%) / TEAEs leading to early discontinuation of study drug: Syncope, n (%) / TEAEs leading to early discontinuation of study drug: Vomiting, n (%) / n (%) of subjects with Any TEAE / n (%) of subjects with Treatment-related TEAE: Safety Population
[5] = tested on: Community-Acquired Bacterial Pneumonia (CABP); assay: Phase 3 CABP study: Early Clinical Response (72-120 h after first dose); format: in vivo, human; conditions: ITT
[6] = subject who received 450 mg in Period 1 then 300 mg in Period 2

CN(C)c1cc(CNCC(C)(C)C)c(O)c2c1C[C@H]1C[C@H]3[C@H](N(C)C)C(O)=C(C(N)=O)C(=O)[C@@]3(O)C(O)=C1C2=O [Compound 1, 9-[(2,2-dimethyl-propylamino)-methyl]-minocycline]
absolute bioavailability [1]: 35% | Clinical Success n (%) ([2]; baseline pathogen Acinetobacter baumanii complex, N1 = 0 (Compound 1), 1 (Moxifloxacin)): 0 n (%) | Clinical Success n (%) ([2]; baseline pathogen Acinetobacter baumanii, N1 = 0 (Compound 1), 1 (Moxifloxacin)): 0 n (%) | Clinical Success n (%) ([2]; baseline pathogen Acinetobacter junii, N1 = 1 (Compound 1), 0 (Moxifloxacin)): 1 (100.0) n (%) | Clinical Success n (%) ([2]; baseline pathogen Acinetobacter lwoffii, N1 = 1 (Compound 1), 0 (Moxifloxacin)): 1 (100.0) n (%) | Clinical Success n (%) ([2]; baseline pathogen Citrobacter braakii, N1 = 0 (Compound 1), 1 (Moxifloxacin)): 0 n (%) | Clinical Success n (%) ([2]; baseline pathogen Citrobacter freundii, N1 = 0 (Compound 1), 1 (Moxifloxacin)): 0 n (%) | Clinical Success n (%) ([2]; baseline pathogen Enterobacter cloacae, N1 = 2 (Compound 1), 4 (Moxifloxacin)): 2 (100.0) n (%) | Clinical Success n (%) ([2]; baseline pathogen Haemophilus haemolyticus, N1 = 1 (Compound 1), 0 (Moxifloxacin)): 1 (100.0) n (%) | Clinical Success n (%) ([2]; baseline pathogen Haemophilus parahaemolyticus, N1 = 2 (Compound 1), 2 (Moxifloxacin)): 2 (100.0) n (%) | Clinical Success n (%) ([2]; baseline pathogen Klebsiella oxytoca, N1 = 1 (Compound 1), 4 (Moxifloxacin)): 0 n (%) | Clinical Success n (%) ([2]; baseline pathogen Morganella morganii, N1 = 1 (Compound 1), 0 (Moxifloxacin)): 1 (100.0) n (%) | Clinical Success n (%) ([2]; baseline pathogen Neisseria meningitidis, N1 = 1 (Compound 1), 1 (Moxifloxacin)): 1 (100.0) n (%) | Clinical Success n (%) ([2]; baseline pathogen Prevotella oris, N1 = 0 (Compound 1), 1 (Moxifloxacin)): 0 n (%) | Clinical Success n (%) ([2]; baseline pathogen Proteus mirabilis, N1 = 2 (Compound 1), 2 (Moxifloxacin)): 1 (50.0) n (%) | Clinical Success n (%) ([2]; baseline pathogen Pseudomonas aeruginosa, N1 = 3 (Compound 1), 5 (Moxifloxacin)): 2 (66.7) n (%) | Clinical Success n (%) ([2]; baseline pathogen Pseudomonas putida, N1 = 0 (Compound 1), 1 (Moxifloxacin)): 0 n (%) | Clinical Success n (%) ([2]; baseline pathogen Serratia marcescens, N1 = 1 (Compound 1), 0 (Moxifloxacin)): 1 (100.0) n (%) | Clinical Success n (%) ([2]; baseline pathogen Stenotrophomonas maltophilia, N1 = 0 (Compound 1), 2 (Moxifloxacin)): 0 n (%) | Clinical Success n (%) ([2]; baseline pathogen Streptococcus agalactiae, N1 = 2 (Compound 1), 3 (Moxifloxacin)): 2 (100.0) n (%) | Clinical Success n (%) ([2]; baseline pathogen Streptococcus anginosus, N1 = 0 (Compound 1), 1 (Moxifloxacin)): 0 n (%) | Clinical Success n (%) ([2]; baseline pathogen Streptococcus constellatus, N1 = 1 (Compound 1), 1 (Moxifloxacin)): 1 (100.0) n (%) | Clinical Success n (%) ([2]; baseline pathogen Streptococcus gordonii, N1 = 0 (Compound 1), 1 (Moxifloxacin)): 0 n (%) | Clinical Success n (%) ([2]; baseline pathogen Streptococcus mitis group, N1 = 1 (Compound 1), 2 (Moxifloxacin)): 1 (100.0) n (%) | Clinical Success n (%) ([2]; baseline pathogen Streptococcus mitis, N1 = 3 (Compound 1), 5 (Moxifloxacin)): 3 (100.0) n (%) | Clinical Success n (%) ([2]; baseline pathogen Streptococcus oralis, N1 = 1 (Compound 1), 0 (Moxifloxacin)): 1 (100.0) n (%) | Clinical Success n (%) ([2]; baseline pathogen Streptococcus parasanguinis, N1 = 0 (Compound 1), 2 (Moxifloxacin)): 0 n (%) | Clinical Success n (%) ([2]; baseline pathogen Streptococcus salivarius, N1 = 1 (Compound 1), 3 (Moxifloxacin)): 1 (100.0) n (%) | Clinical Success n (%) ([2]; baseline pathogen Streptococcus sanguinis, N1 = 0 (Compound 1), 2 (Moxifloxacin)): 0 n (%) | efficacy in mouse model of lower respiratory tract infection [3]: effective | frequency of treatment-related TEAEs ([4]; 300 mg): 15.4% | median change in alanine aminotransferase (ALT) between baseline and Day 5 ([4]; 300 mg): −2.0 IU/L | Most frequent TEAEs: ALT increased, n (%) ([4]; 300 mg (n = 26)): 0 n (%) | Most frequent TEAEs: Diarrhea, n (%) ([4]; 300 mg (n = 26)): 0 n (%) | Most frequent TEAEs: Dizziness, n (%) ([4]; 300 mg (n = 26)): 2 (7.7) n (%) | Most frequent TEAEs: Nausea, n (%) ([4]; 300 mg (n = 26)): 2 (7.7) n (%) | Most frequent TEAEs: Vomiting, n (%) ([4]; 300 mg (n = 26)): 2 (7.7) n (%) | TEAEs leading to early discontinuation of study drug: ALT increased, n (%) ([4]; 300 mg (n = 26)): 0 n (%) | TEAEs leading to early discontinuation of study drug: All, n (%) ([4]; 300 mg (n = 26)): 1 (3.8) n (%) | TEAEs leading to early discontinuation of study drug: Lipase increased, n (%) ([4]; 300 mg (n = 26)): 0 n (%) | TEAEs leading to early discontinuation of study drug: Nausea, n (%) ([4]; 300 mg (n = 26)): 1 (3.8) n (%) | TEAEs leading to early discontinuation of study drug: Syncope, n (%) ([4]; 300 mg (n = 26)): 0 n (%) | TEAEs leading to early discontinuation of study drug: Vomiting, n (%) ([4]; 300 mg (n = 26)): 1 (3.8) n (%) | n (%) of subjects with Any TEAE ([4]; 300 mg (n = 26)): 5 (19.2) n (%) | n (%) of subjects with Treatment-related TEAE ([4]; 300 mg (n = 26)): 4 (15.4) n (%) | frequency of treatment-related TEAEs ([4]; 450 mg): 8.3% | median change in alanine aminotransferase (ALT) between baseline and Day 5 ([4]; 450 mg): 5.0 IU/L | Most frequent TEAEs: ALT increased, n (%) ([4]; 450 mg (n = 24)): 1 (4.2) n (%) | Most frequent TEAEs: Diarrhea, n (%) ([4]; 450 mg (n = 24)): 0 n (%) | Most frequent TEAEs: Dizziness, n (%) ([4]; 450 mg (n = 24)): 0 n (%) | Most frequent TEAEs: Nausea, n (%) ([4]; 450 mg (n = 24)): 1 (4.2) n (%) | Most frequent TEAEs: Vomiting, n (%) ([4]; 450 mg (n = 24)): 0 n (%) | TEAEs leading to early discontinuation of study drug: ALT increased, n (%) ([4]; 450 mg (n = 24)): 1 (4.2) n (%) | TEAEs leading to early discontinuation of study drug: All, n (%) ([4]; 450 mg (n = 24)): 1 (4.2) n (%) | TEAEs leading to early discontinuation of study drug: Lipase increased, n (%) ([4]; 450 mg (n = 24)): 0 n (%) | TEAEs leading to early discontinuation of study drug: Nausea, n (%) ([4]; 450 mg (n = 24)): 0 n (%) | TEAEs leading to early discontinuation of study drug: Syncope, n (%) ([4]; 450 mg (n = 24)): 0 n (%) | TEAEs leading to early discontinuation of study drug: Vomiting, n (%) ([4]; 450 mg (n = 24)): 0 n (%) | n (%) of subjects with Any TEAE ([4]; 450 mg (n = 24)): 3 (12.5) n (%) | n (%) of subjects with Treatment-related TEAE ([4]; 450 mg (n = 24)): 2 (8.3) n (%) | frequency of treatment-related TEAEs ([4]; 600 mg): 25.0% | median change in alanine aminotransferase (ALT) between baseline and Day 5 ([4]; 600 mg): 19.5 IU/L | reports of diarrhea ([4]; 600 mg): 2 | Most frequent TEAEs: ALT increased, n (%) ([4]; 600 mg (n = 24)): 1 (4.2) n (%) | Most frequent TEAEs: Diarrhea, n (%) ([4]; 600 mg (n = 24)): 2 (8.3) n (%) | Most frequent TEAEs: Dizziness, n (%) ([4]; 600 mg (n = 24)): 1 (4.2) n (%) | Most frequent TEAEs: Nausea, n (%) ([4]; 600 mg (n = 24)): 4 (16.7) n (%) | Most frequent TEAEs: Vomiting, n (%) ([4]; 600 mg (n = 24)): 1 (4.2) n (%) | TEAEs leading to early discontinuation of study drug: ALT increased, n (%) ([4]; 600 mg (n = 24)): 0 n (%) | TEAEs leading to early discontinuation of study drug: All, n (%) ([4]; 600 mg (n = 24)): 1 (4.2) n (%) | TEAEs leading to early discontinuation of study drug: Lipase increased, n (%) ([4]; 600 mg (n = 24)): 1 (4.2) n (%) | TEAEs leading to early discontinuation of study drug: Nausea, n (%) ([4]; 600 mg (n = 24)): 0 n (%) | TEAEs leading to early discontinuation of study drug: Syncope, n (%) ([4]; 600 mg (n = 24)): 0 n (%) | TEAEs leading to early discontinuation of study drug: Vomiting, n (%) ([4]; 600 mg (n = 24)): 0 n (%) | n (%) of subjects with Any TEAE ([4]; 600 mg (n = 24)): 6 (25.0) n (%) | n (%) of subjects with Treatment-related TEAE ([4]; 600 mg (n = 24)): 6 (25.0) n (%) | TEAE nausea ([4]; 600 mg group): 16.7% | tolerability of multiple doses ([4]; 300, 450 and 600 mg once daily for 5 days): generally well-tolerated | TEAE nausea ([4]; 300 and 450 mg dose groups): ≤ 7.7% | Most frequent TEAEs: ALT increased, n (%) ([4]; Omadacycline Overall (n = 26)): 2 (7.7) n (%) | Most frequent TEAEs: Diarrhea, n (%) ([4]; Omadacycline Overall (n = 26)): 2 (7.7) n (%) | Most frequent TEAEs: Dizziness, n (%) ([4]; Omadacycline Overall (n = 26)): 3 (11.5) n (%) | Most frequent TEAEs: Nausea, n (%) ([4]; Omadacycline Overall (n = 26)): 6 (23.1) n (%) | Most frequent TEAEs: Vomiting, n (%) ([4]; Omadacycline Overall (n = 26)): 3 (11.5) n (%) | TEAEs leading to early discontinuation of study drug: ALT increased, n (%) ([4]; Omadacycline Overall (n = 26)): 1 (3.8) n (%) | TEAEs leading to early discontinuation of study drug: All, n (%) ([4]; Omadacycline Overall (n = 26)): 3 (11.5) n (%) | TEAEs leading to early discontinuation of study drug: Lipase increased, n (%) ([4]; Omadacycline Overall (n = 26)): 1 (3.8) n (%) | TEAEs leading to early discontinuation of study drug: Nausea, n (%) ([4]; Omadacycline Overall (n = 26)): 1 (3.8) n (%) | TEAEs leading to early discontinuation of study drug: Syncope, n (%) ([4]; Omadacycline Overall (n = 26)): 0 n (%) | TEAEs leading to early discontinuation of study drug: Vomiting, n (%) ([4]; Omadacycline Overall (n = 26)): 1 (3.8) n (%) | n (%) of subjects with Any TEAE ([4]; Omadacycline Overall (n = 26)): 10 (38.5) n (%) | n (%) of subjects with Treatment-related TEAE ([4]; Omadacycline Overall (n = 26)): 9 (34.6) n (%) | serious TEAEs (SAEs) ([4]; multiple oral doses 300-600 mg): no serious TEAEs | severity of TEAEs ([4]; multiple oral doses 300-600 mg): either mild or moderate | highest individual ALT value [4, 6]: 150 IU/L | highest individual ALT value above the upper limit of normal [4, 6]: 2.7 fold | subjects reporting TEAEs ([4]; subjects that received omadacycline (300, 450, 600 mg)): 38.5% | Difference (95% CI) in Early Clinical Success rate, Compound 1 minus moxifloxacin [5]: −1.6% and −1.6 (−7.1, 3.8) % | Early Clinical Response: Clinical Failure ([5]; 72-120 h after first infusion): 49 (12.7) n (%) | Early Clinical Response: Clinical Failure or Indeterminate ([5]; 72-120 h after first infusion): 73 (18.9) n (%) | Early Clinical Response: Clinical Success ([5]; 72-120 h after first infusion): 313 (81.1) n (%) | Early Clinical Response: Indeterminate ([5]; 72-120 h after first infusion): 24 (6.2) n (%)
